Test results taken from ChEMBL document CHEMBL2440042, “Anti-proliferative activity of hydnocarpin, a natural lignan, is associated with the suppression of Wnt/β-catenin signaling pathway in colon cancer cells” (Bioorg Med Chem Lett, 2013).

Key:
SW480 [1] = assay: Inhibition of Wnt/beta-catenin signaling pathway in human SW480 cells assessed as beta-catenin protein expression at 10 uM after 12 hrs by Western blotting analysis relative to vehicle-treated control
HEK293 = assay: Inhibition of Wnt/beta-catenin signaling pathway in human HEK293 cells at 20 uM after 24 hrs by dual luciferase reporter gene assay relative to vehicle-treated control; conditions: HEK293, 24 h
SW480 [2] = assay: Antiproliferative activity against human SW480 cells assessed as growth inhibition after 72 hrs by SRB assay; format: functional, cell-based; conditions: SW480, 72 h
SW480 [3] = assay: Inhibition of Wnt/beta-catenin signaling pathway in human SW480 cells assessed as increase in phosphorylation of beta-catenin at Ser45 at 5 uM after 12 hrs by Western blotting analysis relative to vehicle-treated control
SW480 [4] = assay: Inhibition of Wnt/beta-catenin signaling pathway in human SW480 cells assessed as increase in phosphorylation of beta-catenin at Ser45 at 10 uM after 12 hrs by Western blotting analysis relative to vehicle-treated control
SW480 [5] = assay: Inhibition of Wnt/beta-catenin signaling pathway in human SW480 cells assessed as increase in phosphorylation of beta-catenin at Ser45 at 20 uM after 12 hrs by Western blotting analysis relative to vehicle-treated control
SW480 [6] = assay: Inhibition of Wnt/beta-catenin signaling pathway in human SW480 cells assessed as dvl1 protein expression at 5 uM after 12 hrs by Western blotting analysis relative to vehicle-treated control
SW480 [7] = assay: Inhibition of Wnt/beta-catenin signaling pathway in human SW480 cells assessed as dvl1 protein expression at 10 uM after 12 hrs by Western blotting analysis relative to vehicle-treated control
SW480 [8] = assay: Inhibition of Wnt/beta-catenin signaling pathway in human SW480 cells assessed as dvl2 protein expression at 10 uM after 12 hrs by Western blotting analysis relative to vehicle-treated control
SW480 [9] = assay: Inhibition of Wnt/beta-catenin signaling pathway in human SW480 cells assessed as dvl2 protein expression at 20 uM after 12 hrs by Western blotting analysis relative to vehicle-treated control
SW480 [10] = assay: Inhibition of Wnt/beta-catenin signaling pathway in human SW480 cells assessed as dvl3 protein expression at 20 uM after 12 hrs by Western blotting analysis relative to vehicle-treated control
SW480 [11] = assay: Inhibition of Wnt/beta-catenin signaling pathway in human SW480 cells assessed as GSK3-beta protein expression at 10 uM after 12 hrs by Western blotting analysis relative to vehicle-treated control
SW480 [12] = assay: Inhibition of Wnt/beta-catenin signaling pathway in human SW480 cells assessed as CK1-alpha protein expression at 5 uM after 12 hrs by Western blotting analysis relative to vehicle-treated control
SW480 [13] = assay: Inhibition of Wnt/beta-catenin signaling pathway in human SW480 cells assessed as Axin2 protein expression at 10 uM after 24 hrs by Immunoblotting analysis relative to vehicle-treated control
SW480 [14] = assay: Inhibition of Wnt/beta-catenin signaling pathway in human SW480 cells assessed as beta-catenin protein expression at 10 uM after 24 hrs by Immunoblotting analysis relative to vehicle-treated control
SW480 [15] = assay: Inhibition of Wnt/beta-catenin signaling pathway in human SW480 cells assessed as CK1-alpha protein expression at 10 uM after 12 hrs by Western blotting analysis relative to vehicle-treated control
SW480 [16] = assay: Inhibition of Wnt/beta-catenin signaling pathway in human SW480 cells assessed as Axin1 protein expression at 10 uM after 12 hrs by Western blotting analysis relative to vehicle-treated control
SW480 [17] = assay: Inhibition of Wnt/beta-catenin signaling pathway in human SW480 cells assessed as Axin2 protein expression at 10 uM after 12 hrs by Western blotting analysis relative to vehicle-treated control
SW480 [18] = assay: Inhibition of Wnt/beta-catenin signaling pathway in human SW480 cells assessed as phosphorylated (S45) beta-catenin protein expression at 10 uM after 24 hrs by Western blotting analysis relative to vehicle-treated control
SW480 [19] = assay: Inhibition of Wnt/beta-catenin signaling pathway in human SW480 cells assessed as phosphorylated (S45) beta-catenin protein expression at 20 uM after 24 hrs by Western blotting analysis relative to vehicle-treated control
SW480 [20] = assay: Inhibition of Wnt/beta-catenin signaling pathway in human SW480 cells assessed as dvl1 protein expression at 5 uM after 24 hrs by Western blotting analysis relative to vehicle-treated control
SW480 [21] = assay: Inhibition of Wnt/beta-catenin signaling pathway in human SW480 cells assessed as dvl1 protein expression at 10 uM after 24 hrs by Western blotting analysis relative to vehicle-treated control
SW480 [22] = assay: Inhibition of Wnt/beta-catenin signaling pathway in human SW480 cells assessed as dvl3 protein expression at 5 uM after 24 hrs by Western blotting analysis relative to vehicle-treated control
SW480 [23] = assay: Inhibition of Wnt/beta-catenin signaling pathway in human SW480 cells assessed as dvl3 protein expression at 10 uM after 24 hrs by Western blotting analysis relative to vehicle-treated control
SW480 [24] = assay: Inhibition of Wnt/beta-catenin signaling pathway in human SW480 cells assessed as GSK3-beta protein expression at 10 uM after 24 hrs by Western blotting analysis relative to vehicle-treated control
SW480 [25] = assay: Inhibition of Wnt/beta-catenin signaling pathway in human SW480 cells assessed as GSK3-beta protein expression at 20 uM after 24 hrs by Western blotting analysis relative to vehicle-treated control
SW480 [26] = assay: Inhibition of Wnt/beta-catenin signaling pathway in human SW480 cells assessed as CK1-alpha protein expression at 5 uM after 24 hrs by Western blotting analysis relative to vehicle-treated control
SW480 [27] = assay: Inhibition of Wnt/beta-catenin signaling pathway in human SW480 cells assessed as CK1-alpha protein expression at 20 uM after 24 hrs by Western blotting analysis relative to vehicle-treated control
SW480 [28] = assay: Inhibition of Wnt/beta-catenin signaling pathway in human SW480 cells assessed as Axin1 protein expression at 5 uM after 24 hrs by Western blotting analysis relative to vehicle-treated control
SW480 [29] = assay: Inhibition of Wnt/beta-catenin signaling pathway in human SW480 cells assessed as Axin1 protein expression at 10 uM after 24 hrs by Western blotting analysis relative to vehicle-treated control
SW480 [30] = assay: Inhibition of Wnt/beta-catenin signaling pathway in human SW480 cells assessed as Axin1 protein expression at 20 uM after 24 hrs by Western blotting analysis relative to vehicle-treated control
SW480 [31] = assay: Inhibition of Wnt/beta-catenin signaling pathway in human SW480 cells assessed as Axin2 protein expression at 5 uM after 24 hrs by Western blotting analysis relative to vehicle-treated control
SW480 [32] = assay: Inhibition of Wnt/beta-catenin signaling pathway in human SW480 cells assessed as Axin2 protein expression at 20 uM after 24 hrs by Western blotting analysis relative to vehicle-treated control
SW480 [33] = assay: Inhibition of Wnt/beta-catenin signaling pathway in human SW480 cells assessed as Axin1 protein expression at 5 uM after 24 hrs by Immunoblotting analysis relative to vehicle-treated control

IC50 (SW480 [2]): 20.3 µM
SMILES: COc1cc([C@H]2Oc3ccc(-c4cc(=O)c5c(O)cc(O)cc5o4)cc3O[C@@H]2CO)ccc1O (relative stereo)
fold change (FC) (SW480 [1]): 0.7
inhibition at 20 µM (HEK293): 61.6%
fold change (FC) (SW480 [3]): 3
fold change (FC) (SW480 [4]): 3.6
fold change (FC) (SW480 [5]): 4.9
fold change (FC) (SW480 [6]): 1.2
fold change (FC) (SW480 [7]): 1
fold change (FC) (SW480 [8]): 1
fold change (FC) (SW480 [9]): 0.9
fold change (FC) (SW480 [10]): 1.1
fold change (FC) (SW480 [11]): 0.8
fold change (FC) (SW480 [12]): 0.9
fold change (FC) (SW480 [13]): 1.2
fold change (FC) (SW480 [14]): 0.7
fold change (FC) (SW480 [15]): 0.9
fold change (FC) (SW480 [16]): 2.2
fold change (FC) (SW480 [17]): 3.4
fold change (FC) (SW480 [18]): 2.1
fold change (FC) (SW480 [19]): 2.4
fold change (FC) (SW480 [20]): 1
fold change (FC) (SW480 [21]): 1
fold change (FC) (SW480 [22]): 1.2
fold change (FC) (SW480 [23]): 1
fold change (FC) (SW480 [24]): 1.2
fold change (FC) (SW480 [25]): 1
fold change (FC) (SW480 [26]): 1.1
fold change (FC) (SW480 [27]): 1.1
fold change (FC) (SW480 [28]): 1.7
fold change (FC) (SW480 [29]): 3.5
fold change (FC) (SW480 [30]): 4.2
fold change (FC) (SW480 [31]): 1.8
fold change (FC) (SW480 [32]): 6.7
fold change (FC) (SW480 [33]): 1.4
